# Measurements from US11827629B2, “CDGSH iron sulfur domain 2 activators and use thereof” (National Health Research Institutes, priority 2021, dated 2023).
# Legend:
# [1] = system: Cisd2 promoter with firefly luciferase reporter; assay: Cisd2-luciferase reporter assay in HEK293-CISD2 cells; assay type: cell-based; details: Homo sapiens, 24 hours incubation, luciferase luminescence
# Outline: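 HEK293 cells stably carrying Cisd2 promoter-firefly luciferase, seeded at 3×10^3 cells/well, exposed to compounds 24 h at 37 °C; luminescence read after 5 min ONE-Glo at room temperature. EC50 reported in classes: A <1 μM, B 1-5 μM, C 5-10 μM.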
# Cisd2 hKO male mice = assay: In vivo fructose-induced NASH model in Cisd2 hKO mice (histopathology, GTT, ITT); details: 0.015 wt % in diet for 5 months
# Excerpt: Compound 28 was used to alleviate nonalcoholic steatohepatitis (NASH) in Cisd2 hKO male mice described above.
# Cisd2 hKO were bred for two generations. […] They were fed 30% (w/v) fructose (Alfa Aesar A17718) in water to establish a fructose-induced NASH model. Groups of mice at 2 months old were provided with a diet (AIN93G, TestDiet) containing a vehicle (0.14 wt % of DMF and 0.15 wt % of Cremophor® EL) or Compound 28 (0.015 wt %) for 5 months. The food and drinking water were provided ad libitum.
# Histopathology was used to evaluate the efficacy of Compound 28 in alleviating NASH. Liver tissues were processed and stained as described in Example 53 above.
# An oral glucose tolerance test (GTT) and an insulin tolerance test (ITT) were performed to study beneficial effects of Compound 28 in the fructose-induced NASH model. In the oral glucose tolerance test, mice were fasted for 14 hours (7 p.m. to 9 a.m.) and then were orally administrated with glucose water (1.5 mg/g body weight) using a feeding needle. Blood samples were collected from tail vein before (0 min) and after glucose treatment at predetermined time points. Blood glucose levels were measured using OneTouch® Ultra glucose test strips and SureStep® Meter (LifeScan). In the insulin tolerance test, mice were fasted for 2 hours (9 a.m. to 11 a.m.) and then intraperitoneally injected with insulin (0.75 U/kg body weight) (Actrapid® human regular insulin, Novo Nordisk). Blood samples were collected and monitored at predetermined time points.
# Male C57BL/6 mice = assay: In vivo protection against doxorubicin-induced cardiotoxicity (ECG, echocardiography); details: 1 mg/kg i.p. twice a day for 2 days, doxorubicin 25 mg/kg i.p., ECG day 4, heart echo day 5
# Experimental: Compound 28 was evaluated for protecting against doxorubicin-induced cardiotoxicity in mice.
# Male C57BL/6 mice between 7 and 8 months old were treated with Compound 28 (at a dosage of 1 mg/kg) or a vehicle (1.5 wt % of DMF and 3 wt % of Cremophor® EL in PBS) via intraperitoneal injection (i.p.) twice a day for 2 days. At day 0, 1 hour after the treatment with Compound 28, doxorubicin (25 mg/kg, i.p.) or another vehicle (10% DMSO in normal saline) was injected into mice.
# Electrocardiogram (ECG) and heart echo on day 4 and day 5 respectively were used as indications of cardiac function. […]
# Functional test of heart using ECG was performed as described in Yeh et al., PLoS Biol. 2019, 17, e3000508. […] Continuous 5-minute ECGs were obtained using subcutaneous electrodes attached at the four limbs and recorded with PowerLab® data acquisition system (model ML866, ADInstruments, Colorado Springs, CO) and Animal Bio Amp® (model ML136, ADInstruments). ECG analysis was performed in an unbiased fashion where 1500 beats were analyzed using LabChart® 7 Pro version 7.3.1 (ADInstruments, Inc). […]
# Transthoracic mouse echocardiography was used to provide noninvasive imaging of the heart on a VisualSonics® VeVo® 2100 imaging system (VisualSonics, Toronto, Ontario, Canada). […] Body temperature was maintained and monitored at 36° C. to 37° C. on a heated pad (TC-1000, CWE Inc. USA). ECGs were continuously monitored. […]
smiles,measurement,setting,value
"O=C(CS(=O)(=O)c1nccs1)N1Cc2ccccc2C1 [Compound 28, 1-(1,3-dihydro-2H-isoindol-2-yl)-2-(1,3-thiazol-2-ylsulfonyl)ethanone]",EC50,[1],< 1 µM
same,effect on fructose-induced NASH,"Cisd2 hKO male mice; Cisd2 hKO male mice, 30% fructose in water, liver histopathology",ameliorate fructose-induced NASH
same,toxicity,Cisd2 hKO male mice; fructose-induced NASH model,without obvious toxicity
same,effect on fructose-induced insulin resistance,Cisd2 hKO male mice; insulin tolerance test,alleviate fructose-induced glucose intolerance and insulin resistance
same,effect on fructose-induced glucose intolerance,Cisd2 hKO male mice; oral glucose tolerance test,alleviate fructose-induced glucose intolerance
same,protection against doxorubicin-induced cardiotoxicity,Male C57BL/6 mice,protected against doxorubicin-induced cardiotoxicity
